Test results as given in the NIST ThermoML archive (doi:10.1016/j.jct.2011.12.008).

Experiment: xn = mol fraction of the nth substance listed
Conditions: 101 kPa, Liquid; for viscosity: Capillary tube (Ostwald / Ubbelohde) method; for mass density: Vibrating tube method

CCCCCCn1cc[n+](C)c1.F[B-](F)(F)F [1-hexyl-3-methylimidazolium tetrafluoroborate] + CC(C)CO
Conditions	mass density [kg/m3]	viscosity [mPa·s]
293.15 K, x1 = 0.3101	989.53	18.26
293.15 K, x1 = 0.4279	1031.42	26.88
293.15 K, x1 = 0.5606	1068.28	49.75
293.15 K, x1 = 0.6901	1097.67	84.38
293.15 K, x1 = 0.8327	1123.89	138.81
293.15 K, x1 = 1	1149.05	234.68
298.15 K, x1 = 0.3101	985.83	15.47
298.15 K, x1 = 0.4279	1027.83	23.01
298.15 K, x1 = 0.5606	1064.75	37.72
298.15 K, x1 = 0.6901	1094.14	66.81
298.15 K, x1 = 0.8327	1120.44	107.94
298.15 K, x1 = 1	1145.61	178.92
303.15 K, x1 = 0.1004	870.1	5.95
303.15 K, x1 = 0.151	902.53	7.454
303.15 K, x1 = 0.2009	931.08	8.374
303.15 K, x1 = 0.3101	982.2	12.94
303.15 K, x1 = 0.4279	1024.31	18.9
303.15 K, x1 = 0.5606	1061.3	32.1
303.15 K, x1 = 0.6901	1090.76	53.77
303.15 K, x1 = 0.8327	1117.15	84.55
303.15 K, x1 = 1	1142.3	136.15
308.15 K, x1 = 0.1004	866.28	4.975
308.15 K, x1 = 0.151	898.71	6.339
308.15 K, x1 = 0.2009	927.23	7.116
308.15 K, x1 = 0.3101	978.63	10.74
308.15 K, x1 = 0.4279	1020.8	15.81
308.15 K, x1 = 0.5606	1057.79	25.74
308.15 K, x1 = 0.6901	1087.32	45.36
308.15 K, x1 = 0.8327	1113.75	67.62
308.15 K, x1 = 1	1138.95	106.65
313.15 K, x1 = 0.1004	862.42	4.108
313.15 K, x1 = 0.151	894.93	5.202
313.15 K, x1 = 0.2009	923.74	6.184
313.15 K, x1 = 0.3101	975.11	9.102
313.15 K, x1 = 0.4279	1017.21	13.43
313.15 K, x1 = 0.5606	1054.27	21.67
313.15 K, x1 = 0.6901	1083.88	37.52
313.15 K, x1 = 0.8327	1110.33	52.79
313.15 K, x1 = 1	1135.59	83.13
318.15 K, x1 = 0.1004	858.54	3.188
318.15 K, x1 = 0.151	891.18	4.388
318.15 K, x1 = 0.2009	920.15	5.281
318.15 K, x1 = 0.3101	971.5	7.758
318.15 K, x1 = 0.4279	1013.64	11.45
318.15 K, x1 = 0.5606	1050.78	18.8
318.15 K, x1 = 0.6901	1080.45	31.4
318.15 K, x1 = 0.8327	1106.94	45.07
318.15 K, x1 = 1	1132.22	69.13
323.15 K, x1 = 0.1004	854.62	2.993
323.15 K, x1 = 0.151	887.3	3.765
323.15 K, x1 = 0.2009	916.37	4.555
323.15 K, x1 = 0.3101	967.87	6.719
323.15 K, x1 = 0.4279	1010.02	9.919
323.15 K, x1 = 0.5606	1047.3	15.64
323.15 K, x1 = 0.6901	1077.03	26.31
323.15 K, x1 = 0.8327	1103.61	36.01
323.15 K, x1 = 1	1128.88	56.74
328.15 K, x1 = 0.1004	850.65	2.586
328.15 K, x1 = 0.151	883.51	3.266
328.15 K, x1 = 0.2009	912.52	3.949
328.15 K, x1 = 0.3101	964.12	5.855
328.15 K, x1 = 0.4279	1006.35	8.616
328.15 K, x1 = 0.5606	1043.79	13.62
328.15 K, x1 = 0.6901	1073.6	21.88
328.15 K, x1 = 0.8327	1100.2	29.92
328.15 K, x1 = 1	1125.5	48.36
333.15 K, x1 = 0.1004	846.65	2.21
333.15 K, x1 = 0.151	879.73	2.847
333.15 K, x1 = 0.2009	908.64	3.475
333.15 K, x1 = 0.3101	960.36	5.18
333.15 K, x1 = 0.4279	1002.74	7.6
333.15 K, x1 = 0.5606	1040.26	11.92
333.15 K, x1 = 0.6901	1070.21	18.98
333.15 K, x1 = 0.8327	1096.86	26.84
333.15 K, x1 = 1	1122.14	43.01
338.15 K, x1 = 0.1004	842.59	1.853
338.15 K, x1 = 0.151	875.79	2.526
338.15 K, x1 = 0.2009	904.74	3.056
338.15 K, x1 = 0.3101	956.56	4.566
338.15 K, x1 = 0.4279	999.08	6.374
338.15 K, x1 = 0.5606	1036.78	10.1
338.15 K, x1 = 0.6901	1066.82	15.78
338.15 K, x1 = 0.8327	1093.56	23.43
338.15 K, x1 = 1	1118.8	37.15

NCCCO [3-amino-1-propanol] + CCCCCCn1cc[n+](C)c1.F[B-](F)(F)F
Conditions	mass density [kg/m3]	viscosity [mPa·s]
293.15 K, x2 = 0	987.55	39.29
293.15 K, x2 = 0.0536	1010.87	39.35
293.15 K, x2 = 0.0969	1026.17	42.89
293.15 K, x2 = 0.202	1055.57	49.26
293.15 K, x2 = 0.3217	1080.32	56.99
293.15 K, x2 = 0.4942	1105.94	77.82
293.15 K, x2 = 0.6135	1118.92	97.27
293.15 K, x2 = 0.7276	1129.17	125.01
293.15 K, x2 = 0.8343	1137.49	163.87
293.15 K, x2 = 0.9204	1143.7	192.2
298.15 K, x2 = 0	983.55	30.43
298.15 K, x2 = 0.0536	1006.96	30.8
298.15 K, x2 = 0.0969	1022.3	33.2
298.15 K, x2 = 0.202	1051.74	37.85
298.15 K, x2 = 0.3217	1076.53	44.61
298.15 K, x2 = 0.4942	1102.24	59.65
298.15 K, x2 = 0.6135	1115.24	74.53
298.15 K, x2 = 0.7276	1125.66	95.2
298.15 K, x2 = 0.8343	1134.08	123.47
298.15 K, x2 = 0.9204	1140.23	148.27
303.15 K, x2 = 0	979.53	23.87
303.15 K, x2 = 0.0536	1003.04	24.16
303.15 K, x2 = 0.0969	1018.41	26.02
303.15 K, x2 = 0.202	1047.91	29.45
303.15 K, x2 = 0.3217	1072.75	34.55
303.15 K, x2 = 0.4942	1098.55	46.03
303.15 K, x2 = 0.6135	1111.63	57.96
303.15 K, x2 = 0.7276	1122.11	73.65
303.15 K, x2 = 0.8343	1130.63	95.84
303.15 K, x2 = 0.9204	1136.88	115.79
308.15 K, x2 = 0	975.51	19.07
308.15 K, x2 = 0.0536	999.11	19.14
308.15 K, x2 = 0.0969	1014.5	20.58
308.15 K, x2 = 0.202	1044.05	23.41
308.15 K, x2 = 0.3217	1068.95	27.53
308.15 K, x2 = 0.4942	1094.86	36.45
308.15 K, x2 = 0.6135	1108.04	45.81
308.15 K, x2 = 0.7276	1118.58	58.09
308.15 K, x2 = 0.8343	1127.18	75.38
308.15 K, x2 = 0.9204	1133.5	91.04
313.15 K, x2 = 0	971.47	15.27
313.15 K, x2 = 0.0536	995.18	15.64
313.15 K, x2 = 0.0969	1010.6	16.63
313.15 K, x2 = 0.202	1040.2	18.74
313.15 K, x2 = 0.3217	1065.16	22.05
313.15 K, x2 = 0.4942	1091.16	29.14
313.15 K, x2 = 0.6135	1104.43	36.47
313.15 K, x2 = 0.7276	1115.05	46.32
313.15 K, x2 = 0.8343	1123.73	59.62
313.15 K, x2 = 0.9204	1130.12	71.6
318.15 K, x2 = 0	967.43	12.35
318.15 K, x2 = 0.0536	991.28	12.68
318.15 K, x2 = 0.0969	1006.67	13.6
318.15 K, x2 = 0.202	1036.34	15.76
318.15 K, x2 = 0.3217	1061.36	18.42
318.15 K, x2 = 0.4942	1087.47	23.9
318.15 K, x2 = 0.6135	1100.82	28.64
318.15 K, x2 = 0.7276	1111.54	37.85
318.15 K, x2 = 0.8343	1120.28	48.22
318.15 K, x2 = 0.9204	1126.73	58.5
323.15 K, x2 = 0	963.37	10.22
323.15 K, x2 = 0.0536	987.32	10.61
323.15 K, x2 = 0.0969	1002.75	11.16
323.15 K, x2 = 0.202	1032.48	12.61
323.15 K, x2 = 0.3217	1057.55	15.89
323.15 K, x2 = 0.4942	1083.77	19.73
323.15 K, x2 = 0.6135	1097.21	24.2
323.15 K, x2 = 0.7276	1108.02	31.19
323.15 K, x2 = 0.8343	1116.83	39.61
323.15 K, x2 = 0.9204	1123.36	47.9
328.15 K, x2 = 0	959.3	8.535
328.15 K, x2 = 0.0536	983.35	8.7
328.15 K, x2 = 0.0969	998.8	9.325
328.15 K, x2 = 0.202	1028.62	10.96
328.15 K, x2 = 0.3217	1053.76	13.04
328.15 K, x2 = 0.4942	1080.08	16.58
328.15 K, x2 = 0.6135	1093.61	19.92
328.15 K, x2 = 0.7276	1104.51	26.05
328.15 K, x2 = 0.8343	1113.4	33.11
328.15 K, x2 = 0.9204	1119.94	41.26
333.15 K, x2 = 0	955.22	7.123
333.15 K, x2 = 0.0536	979.37	7.144
333.15 K, x2 = 0.0969	994.86	7.836
333.15 K, x2 = 0.202	1024.75	8.918
333.15 K, x2 = 0.3217	1049.98	10.47
333.15 K, x2 = 0.4942	1076.4	13.86
333.15 K, x2 = 0.6135	1090.05	17.14
333.15 K, x2 = 0.7276	1101.02	21.81
333.15 K, x2 = 0.8343	1109.97	27.5
333.15 K, x2 = 0.9204	1116.55	37.45
338.15 K, x2 = 0	951.14	6.045
338.15 K, x2 = 0.0536	975.37	6.221
338.15 K, x2 = 0.0969	990.91	6.676
338.15 K, x2 = 0.202	1020.88	7.634
338.15 K, x2 = 0.3217	1046.21	9.153
338.15 K, x2 = 0.4942	1072.72	11.94
338.15 K, x2 = 0.6135	1086.5	14.71
338.15 K, x2 = 0.7276	1097.55	18.64
338.15 K, x2 = 0.8343	1106.57	23.24
338.15 K, x2 = 0.9204	1113.17	32.09
